Results taken from patent publication US20040034003A1, “7-Hydroxy-16alpha-fluoro-5-androsten-17-ones and 7-hydroxy-16alpha-fluoro-5-androstan-17-ones and derivatives thereof” (priority 2002, published 2004).
“And” between values parts separate entries of the source, which are not always exact repeats. Equal values may be shown once.

System: TPA-Induced DNA Synthesis in Mouse Epidermis
Assay: TPA-induced DNA synthesis in mouse epidermis: [3H]thymidine incorporation and epidermal DNA content of a 2x2 cm2 skin section
Type: in vivo
Details: for μg DNA / corrected cpm / cpm/μg DNA / cpm: individual mouse; for lowest effective dose which suppresses TPA-stimulated epidermal [3H]thymidine incorporation and DNA content: mice
Description: Epidermal hypeplasia is determined by measuring the stimulation in [^3H] thymidine incorporation as well as epidermal DNA content of a 2×2 cm^2 section of skin twenty hours after TPA application.
In prior experiments, 16α-fluoro-5-androsten-17-one was administered in escalating doses by the oral subcutaneous, intraperitoneal, and buccal routes of administration, and the effect on TPA-stimulated epidermal [^3H] thymidine incorporation and epidermal DNA content was determined.
In this experiment, the effect of treating mice subcutaneously (s.c.) with suspensions of 7α-hydroxy-16α-flouro-5-androsten-17-one and suspensions of 16aflouro-5-androsten-17-one were investigated.
Variousl6α-flouro-5-androsten-17 one suspensions (Q) were prepared. The vehicle was 95% saline (0.9% NaCl) and 5% Emulphor. For the 5 mg/kg s.c. suspension, 25.3 mg was suspended in 10 mL of Emulphor-saline. The other suspensions were made by diluting the 5 mg/kg suspension. For the 2.5 mg/kg suspension, 1 mL of 5mg/kg s.c. suspension was diluted to a final volume of 2mL, for the 1 m/kg suspension 1 mL of the 5 mg/kg suspension was made to a total of 5 mL, while for the 0.125 mg/kg suspension, 0.5 mL of the 5 mg/kg suspension was made to a final volume of 20 mL. Magnetic stir bars were added to the suspensions which were kept on a magnetic stirrer.
7α-hydroxy-16α-flouro-5-androsten-17-one was prepared as described hereinabove. For the 5 mg/kg s.c. suspension, 16.3 mg was suspended in 6.5 mL of Emulphor-saline. The other suspensions were made by diluting the 5 mg/kg suspension. For the 2.5 mg/kg, 1 mL of 5 mg/kg suspension was diluted to a final volume of 2 mL, for the 1 mg/kg suspension 1 mL of the 5 mg/kg suspension was made to total 5 mL, while for the 0.125 mg/kg suspension, 0.5 mL of the 5 mg/kg suspension was made up to final volume of 20 mL. Magnetic stir bars were added to the suspensions and the suspensions were kept on a magnetic stirrer.
Female CD-1 mice were obtained from Charles River Laboratories, Wilmington, Mass. at 44-46 days of age. The mice were housed two to three per cage in plastic shoebox cages on Alphacel bedding with 12 hours of alternating light and dark in the CAF Animal Facility, 6th floor, Pharmacy Building. The mice had ad libitum access-to Purina 5015 chow and acidified tap water (pH≦2.6). The mice were allowed to acclimate to the facility for one week prior to use in an experiment. Three days after obtaining the mice, the mice were shaved and weighed. Only those mice showing no hair regrowth were used in the experiment.
Four days after the mice were shaved, they were treated as follows:
The mice were sacrificed 20 hours after treatment by an overdose of CO2. Twenty minutes prior to sacrifice, the mice were injected with 60 μCi of [^3H]thymidine (Amersham Batch 297). The mice were treated with a depilatory to remove any residual hair. A 2×2 cm^2 piece of skin was excised, placed in ice water for 30 seconds, then in 55° C. water for 30 seconds, then ice water again for 30 seconds. The epidermis was scrapped off using a scalpel and the scrapings were placed into ice cold 0.4N TCA (trichloroacetic acid). The scrapings were homogenized using a Tekmar Tissumizer (80% power for 30 seconds). The homogenates were centrifuged for 20 minutes at 3,000×g. The precipitates were washed 3× with 0.2N TCA, and 2× with absolute ethanol. The DNA in each sample was hydrolyzed with 0.5N TCA for 30 minuts at 90°. The tubes were centrifuged for 20 minutes at 3000×g. A 0.2 mL aliquot of each hydrolysate was counted in a LKB Rackbeta scintillation counter using Scintiverse II BD as the counting medium. DNA content was determined by the Burton diphenylamine assay.
Various suspensions were prepared of 16α-fluoro-5-androsten-17-one as follows. The vehicle was 95% saline (0.9% NaCl) and 5% Emulphor. For the 5 mg/kg s.c. suspension, 27.8 mg was suspended in 11.4 mL of Emulphor-saline. The other suspensions were made by diluting the 5 mg/kg suspension. […]

[1] = Example 4, 0.125 mg/kg s.c. 1 h before topical TPA 2 μg, 20 h, Burton diphenylamine assay, 0.125 mg/kg
[2] = Example 4, 0.125 mg/kg s.c. 1 h before topical TPA 2 μg, 20 h
[3] = Example 4, 0.125 mg/kg s.c. 1 h before topical TPA 2 μg, 20 h, 0.125 mg/kg
[4] = Example 4, 0.125 mg/kg s.c. 1 h before topical TPA 2 μg, female CD-1 mice, 20 h after treatment, 0.125 mg/kg
[5] = Example 4, 1 mg/kg s.c. 1 h before topical TPA 2 μg, 20 h
[6] = Example 4, 1 mg/kg s.c. 1 h before topical TPA 2 μg, 20 h, 1 mg/kg
[7] = Example 4, 2.5 mg/kg s.c. 1 h before topical TPA 2 μg, 20 h
[8] = Example 4, 2.5 mg/kg s.c. 1 h before topical TPA 2 μg, 20 h, 2.5 mg/kg
[9] = Example 4, 5 mg/kg s.c. 1 h before topical TPA 2 μg, 20 h
[10] = Example 4, 5 mg/kg s.c. 1 h before topical TPA 2 μg, 20 h, 5 mg/kg
[11] = Example 5, 1 mg/kg s.c. 1 h before topical TPA 2 μg, 20 h, listed as Fluasterone, 1 mg/kg
[12] = Example 5, 2.5 mg/kg s.c. 1 h before topical TPA 2 μg, 20 h, listed as Fluasterone, 2.5 mg/kg
[13] = Example 5, 5 mg/kg s.c. 1 h before topical TPA 2 μg, 20 h, listed as Fluasterone, 5 mg/kg
[14] = prior experiments, escalating doses, oral, subcutaneous, intraperitoneal and buccal routes

C[C@]12CCCCC1=C[C@@H](O)[C@@H]1[C@@H]2CC[C@]2(C)C(=O)[C@H](F)C[C@@H]12 [7α-hydroxy-16α-fluoro-5-androsten-17-one, 16α-fluoro-7α-hydroxy-5-androsten-17-one]
μg DNA [1]: 16.8 µg and 15.4 µg
cpm/μg DNA (group average ±) [2]: 335.1 ± 64.4 cpm/μg DNA
corrected cpm [3]: 6,394.0 cpm and 4,458.0 cpm
cpm/μg DNA [3]: 380.6 cpm/μg DNA and 289.5 cpm/μg DNA
cpm [4]: 6,419.0 cpm and 4,483.0 cpm
cpm/μg DNA (group average ±) [5]: 245.5 ± 44.1 cpm/μg DNA
corrected cpm [6]: 3,021.0 cpm and 3,623.0 cpm
cpm [6]: 3,046.0 cpm and 3,648.0 cpm
cpm/μg DNA [6]: 214.3 cpm/μg DNA and 276.6 cpm/μg DNA
μg DNA [6]: 14.1 µg and 13.1 µg
cpm/μg DNA (group average ±) [7]: 350.2 ± 32.5 cpm/μg DNA
corrected cpm [8]: 4,478.0 cpm and 3,698.0 cpm
cpm [8]: 4,503.0 cpm and 3,723.0. cpm
cpm/μg DNA [8]: 373.2 cpm/μg DNA and 327.3 cpm/μg DNA
μg DNA [8]: 12.0 µg and 11.3 µg
cpm/μg DNA (group average ±) [9]: 360.3 ± 9.3 cpm/μg DNA
μg DNA [9]: 11.9 µg
corrected cpm [10]: 4,366.0 cpm and 4,209.0 cpm
cpm [10]: 4,391.0 cpm and 4,234.0 cpm
cpm/μg DNA [10]: 366.9 cpm/μg DNA and 353.7 cpm/μg DNA
effect on [3H]thymidine incorporation and epidermal DNA content (in words) (Example 4, s.c., dose range 0.125-5 mg/kg): inhibited [^3H] thymidine incorporation and epidermal DNA content over the dose range with no apparent nadir or over stimulation

C[C@]12CCCCC1=CC[C@@H]1[C@@H]2CC[C@]2(C)C(=O)[C@H](F)C[C@@H]12 [Q, 16α-fluoro-5-androsten-17-one, reference compound]
μg DNA [1]: 10.0 µg and 9.1 µg
cpm/μg DNA (group average ±) [2]: 441.5 ± 133.4 cpm/μg DNA
corrected cpm [3]: 3,471.0 cpm and 4,876.0 cpm
cpm/μg DNA [3]: 347.1 cpm/μg DNA and 535.8 cpm/μg DNA
cpm [4]: 3,496.0 cpm and 4,901.0 cpm
cpm/μg DNA (group average ±) [5]: 236.4 ± 46.5 cpm/μg DNA
corrected cpm [6]: 1,811.0 cpm and 2,750.1 cpm
cpm [6]: 1,836.0 cpm and 2,775.1 cpm
cpm/μg DNA [6]: 203.5 cpm/μg DNA and 269.6 cpm/μg DNA
μg DNA [6]: 8.9 µg and 10.2 µg
cpm/μg DNA (group average ±) [7]: 173.3 ± 11.3 cpm/μg DNA
corrected cpm [8]: 1,251.0 cpm and 1,207.0 cpm
cpm [8]: 1,276.0 cpm and 1,232.0 cpm
cpm/μg DNA [8]: 181.3 cpm/μg DNA and 165.3 cpm/μg DNA
μg DNA [8]: 6.9 µg and 7.3 µg
cpm/μg DNA (group average ±) [9]: 1105.5 ± 28.4 cpm/μg DNA
corrected cpm [10]: 8,249.0 cpm and 10,018.0 cpm
cpm [10]: 8,274.0 cpm and 10,043.0 cpm
cpm/μg DNA [10]: 1,085.4 cpm/μg DNA and 1,125.6 cpm/μg DNA
μg DNA [10]: 7.6 µg and 8.9 µg
dose producing a nadir in [3H]thymidine incorporation (Example 4, s.c.): 2.5 mg/kg
dose producing an overstimulation of [3H]thymidine incorporation (Example 4, s.c.): 5 mg/kg
cpm/μg DNA (group average ±) (Example 5, 1 mg/kg s.c. 1 h before topical TPA 2 μg, 20 h): 170.3 ± 21.7 cpm/μg DNA
corrected cpm [11]: 2,691.0 cpm and 2,741.0 cpm
cpm/μg DNA [11]: 185.6 cpm/μg DNA and 154.9 cpm/μg DNA
μg DNA [11]: 14.5 µg and 17.7 µg
cpm (Example 5, 1 mg/kg s.c. 1 h before topical TPA 2 μg, female CD-1 mice, 20 h, listed as Fluasterone, 1 mg/kg): 2,717.0 cpm and 2,767.0 cpm
cpm/μg DNA (group average ±) (Example 5, 2.5 mg/kg s.c. 1 h before topical TPA 2 μg, 20 h): 81.4 ± 12.0 cpm/μg DNA
corrected cpm [12]: 496.0 cpm and 566.0 cpm
cpm [12]: 522.0 cpm and 592.0 cpm
cpm/μg DNA [12]: 72.9 cpm/μg DNA and 89.8 cpm/μg DNA
μg DNA [12]: 6.8 µg and 6.3 µg
cpm/μg DNA (group average ±) (Example 5, 5 mg/kg s.c. 1 h before topical TPA 2 μg, 20 h): 258.8 ± 12.0 cpm/μg DNA
corrected cpm [13]: 2,192.0 cpm and 1,777.0 cpm
cpm [13]: 2,218.0 cpm and 1,803.0 cpm
cpm/μg DNA [13]: 267.3 cpm/μg DNA and 250.3 cpm/μg DNA
μg DNA [13]: 8.2 µg and 7.1 µg
dose producing a nadir in [3H]thymidine incorporation (Example 5, s.c.): 2.5 mg/kg
dose producing an overstimulation of [3H]thymidine incorporation (Example 5, s.c.): 5 mg/kg
lowest effective dose which suppresses TPA-stimulated epidermal [3H]thymidine incorporation and DNA content (prior experiments, buccal route): 2.5 to 5 mg/kg
dose response for [3H]thymidine incorporation (in words) [14]: U-shaped dose response
epidermal DNA content as the dose increased (in words) [14]: remained suppressed
lowest effective dose which suppresses TPA-stimulated epidermal [3H]thymidine incorporation and DNA content (prior experiments, intraperitoneal route): 5 mg/kg
lowest effective dose which suppresses TPA-stimulated epidermal [3H]thymidine incorporation and DNA content (prior experiments, oral route): 200 mg/kg
lowest effective dose which suppresses TPA-stimulated epidermal [3H]thymidine incorporation and DNA content (prior experiments, subcutaneous route): 2.5 mg/kg
TPA-induced epidermal hyperplasia in mice (in words) (prior finding): inhibits
